From paper PMC10955584, “New Benzimidazole-Triazole Derivatives as Topoisomerase I Inhibitors: Design, Synthesis, Anticancer Screening, and Molecular Modeling Studies” (ACS Omega, 2024)
Where two headings read alike, the source gives them in different places.

Experiments:
[1] = tested on: NIH3T3 (mouse embryo fibroblast cell line); assay: MTT cell viability assay, NIH3T3 healthy cells; assay type: cell-based
[2] = tested on: C6 (rat glioma cell line); assay: MTT cell viability assay, C6; assay type: cell-based
Description: (§1) The anticancer activity of compounds 4a–l were screened according to the MTT assays. The MTT assays were performed as previously described.[3] Anticancer activity of final compounds was assessed against […] A549 (lung carcinoma cell line) and C6 (rat glioma cell line) cell lines.

[3] = tested on: A549 (lung carcinoma cell line); assay: MTT cell viability assay, A549; assay type: cell-based; settings: Homo sapiens
Description: as §1

DNA topoisomerase I = molecular target: T1, DNA topoisomerase I (Homo sapiens, UniProt P11387); assay: DNA topoisomerase I assay (TopoGen kit, relaxation of supercoiled plasmid DNA, agarose gel); assay type: biochemical; settings: supercoiled plasmid DNA pHOT 1, 30 min at 37 °C
T1 construct: purchased TopoGen TG1018–2
T1 sequence (P11387 1-765): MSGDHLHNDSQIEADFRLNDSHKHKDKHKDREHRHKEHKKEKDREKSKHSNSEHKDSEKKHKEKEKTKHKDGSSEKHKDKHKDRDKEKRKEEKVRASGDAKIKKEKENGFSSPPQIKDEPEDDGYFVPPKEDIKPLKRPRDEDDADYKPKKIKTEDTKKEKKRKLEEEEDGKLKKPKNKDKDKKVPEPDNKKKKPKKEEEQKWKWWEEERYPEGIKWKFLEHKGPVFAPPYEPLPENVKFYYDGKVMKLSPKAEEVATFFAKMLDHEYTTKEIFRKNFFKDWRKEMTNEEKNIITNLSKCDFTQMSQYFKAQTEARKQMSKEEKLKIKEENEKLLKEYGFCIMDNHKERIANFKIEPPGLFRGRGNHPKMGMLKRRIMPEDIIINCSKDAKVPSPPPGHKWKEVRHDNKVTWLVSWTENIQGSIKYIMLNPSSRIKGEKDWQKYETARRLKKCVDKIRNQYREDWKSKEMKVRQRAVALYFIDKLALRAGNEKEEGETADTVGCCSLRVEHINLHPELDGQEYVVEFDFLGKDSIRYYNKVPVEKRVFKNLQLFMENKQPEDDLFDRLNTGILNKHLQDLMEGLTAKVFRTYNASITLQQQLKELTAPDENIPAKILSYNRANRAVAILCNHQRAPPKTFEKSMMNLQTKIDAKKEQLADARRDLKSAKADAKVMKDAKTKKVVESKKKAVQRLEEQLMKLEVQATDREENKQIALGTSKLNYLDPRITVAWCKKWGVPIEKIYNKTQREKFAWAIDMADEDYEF
Description: Topogen’s Topoisomerase I Drug Screening Kit was used to investigate the topoisomerase I effects of the compounds. With this kit, it is determined whether the compounds that inhibit Topo I activity act as catalytic inhibitors or topoisomerase poisons. Topoisomerase I inhibition activities of compounds 4b, 4h, Hoechst 33342, and camptothecin were evaluated in vitro and the analysis of the reaction products was visualized by the electrophoresis method. Supercoiled plasmid DNA (pHOT 1) was used as the control group. As another control group, plasmid DNA and topoisomerase I were used to ensure that the DNA became relaxed. Hoechst 33342, known as a topoisomerase poison, and camptothecin were used as positive controls.
Using agarose gel electrophoresis, the topoisomerase I inhibitory activities of the final compounds were assessed by measuring the relaxation of supercoiled plasmid DNA. A positive control, camptothecin, was used. A final volume of 20 μL reaction volume was used for the experiment, which contained 2 μL of 10× TGS buffer, […], 2 μL of supercoiled plasmid DNA, 2 μL of the test compound, 2 μL of Topo I, 2 μl of 10% SDS, 2 μL of proteinase K, and 2 μL of the DNA loading dye. Following a 30 min incubation period at 37 °C, the reaction mixtures were electrophoresed using 1× TAE buffer for 75 min at a potential of 50 V on a 1% agarose gel.[25]

Topo II = tested on: Topo II; design: method as in PMID 35870412; settings: read-out: IC50 Topo II enzyme inhibition; cited from earlier work

SMILES	IC50 [2]	IC50 [3]	melting point	IC50 ([1]; NIH3T3, heading: IC50 NIH3T3)	IC50 [1]	Topoisomerase I inhibitory effect (gel electrophoresis) (DNA topoisomerase I)	IC50 (Topo II)
COc1cccc2c1C(=O)c1c(O)c3c(c(O)c1C2=O)C[C@@](O)(C(=O)CO)C[C@@H]3O[C@H]1C[C@H](N)[C@H](O)[C@H](C)O1 [doxorubicin, reference compound]				1.06 ± 0.00917 µM			
CCn1c(SCC(=O)N2CCN(c3ccccc3)CC2)nnc1-c1ccc2nc(-c3ccc(OC)cc3)[nH]c2c1 [4f, 2-((4-Ethyl-5-(2-(4-methoxyphenyl)-1H-benzo[d]imidazol-6-yl)-4H-1,2,4-triazol-3-yl)thio)-1-(4-phenylpiperazin-1-yl)ethanone]	> 100 µM	69.4 ± 3.04 µM	153.8 °C		92.8 ± 3.06 µM		
CCn1c(SCC(=O)N2CCN(c3ccccn3)CC2)nnc1-c1ccc2nc(-c3ccc(O)cc3)[nH]c2c1 [4c, 2-((4-Ethyl-5-(2-(4-hydroxyphenyl)-1H-benzo[d]imidazol-6-yl)-4H-1,2,4-triazol-3-yl)thio)-1-(4-(2-pyridinyl)piperazin-1-yl)ethanone]	24 ± 2.4 µM	15.8 ± 0.63 µM	312.4 °C		32.2 ± 0.74 µM		
CCn1c(SCC(=O)N2CCN(c3ncccn3)CC2)nnc1-c1ccc2nc(-c3ccc(OC)cc3)[nH]c2c1 [4h, 2-((4-Ethyl-5-(2-(4-methoxyphenyl)-1H-benzo[d]imidazol-6-yl)-4H-1,2,4-triazol-3-yl)thio)-1-(4-(2-pyrimidinyl)piperazin-1-yl)ethanone]	13.2 ± 0.46 µM	4.56 ± 0.18 µM	190.5 °C		74.4 ± 2.68 µM	significant inhibitory activity	
CCOc1ccc(-c2nc3ccc(-c4nnc(SCC(=O)N5CCN(c6ccccn6)CC5)n4CC)cc3[nH]2)cc1 [4k, 2-((4-Ethyl-5-(2-(4-ethoxyphenyl)-1H-benzo[d]imidazol-6-yl)-4H-1,2,4-triazol-3-yl)thio)-1-(4-(2-pyridinyl)piperazin-1-yl)ethanone]	64.6 ± 2.66 µM	24.9 ± 1.21 µM	162.2 °C		46.4 ± 1.21 µM		
CC[C@@]1(O)C(=O)OCc2c1cc1n(c2=O)Cc2cc3ccccc3nc2-1 [camptothecin, reference compound]						strong inhibitory effect as a topoisomerase poison	
CCn1c(SCC(=O)N2CCN(c3ccccn3)CC2)nnc1-c1ccc2nc(-c3ccc(OC)cc3)[nH]c2c1 [4g, 2-((4-Ethyl-5-(2-(4-methoxyphenyl)-1H-benzo[d]imidazol-6-yl)-4H-1,2,4-triazol-3-yl)thio)-1-(4-(2-pyridinyl)piperazin-1-yl)ethanone]	> 100 µM	87.2 ± 3.97 µM	204.3 °C		85.9 ± 2.92 µM		
CCOc1ccc(-c2nc3ccc(-c4nnc(SCC(=O)N5CCN(c6ccccc6)CC5)n4CC)cc3[nH]2)cc1 [4j, 2-((4-Ethyl-5-(2-(4-ethoxyphenyl)-1H-benzo[d]imidazol-6-yl)-4H-1,2,4-triazol-3-yl)thio)-1-(4-phenylpiperazin-1-yl)ethanone]	> 100 µM	54.1 ± 2.18 µM	118.8 °C		69.5 ± 2.85 µM		
CCOc1ccc(-c2nc3ccc(-c4nnc(SCC(=O)N5CCN(c6ncccn6)CC5)n4CC)cc3[nH]2)cc1 [4l, 2-((4-Ethyl-5-(2-(4-ethoxyphenyl)-1H-benzo[d]imidazol-6-yl)-4H-1,2,4-triazol-3-yl)thio)-1-(4-(2-pyrimidinyl)piperazin-1-yl)ethanone]	38.8 ± 1.82 µM	12.4 ± 0.54 µM	140.8 °C		35.7 ± 1.11 µM		
CCOc1ccc(-c2nc3ccc(-c4nc5cc(N6CCN(C)CC6)ccc5[nH]4)cc3[nH]2)cc1 [Hoechst 33342, reference compound]	1.05 ± 0.3 µM	0.422 ± 0.02 µM			13 ± 0.598 µM	strong inhibitory effect as a topoisomerase poison	
CN[C@@H]1C[C@H]2O[C@@](C)([C@@H]1OC)n1c3ccccc3c3c4c(c5c6ccccc6n2c5c31)C(=O)NC4 [staurosporine]							4.64 µM

Further lines, with some results ahead:

IC50 [2]	IC50 [3]	melting point	SMILES	IC50 ([1]; NIH3T3, heading: IC50 NIH3T3)	IC50 [1]	Topoisomerase I inhibitory effect (gel electrophoresis) (DNA topoisomerase I)	IC50 (Topo II)
39.4 ± 2.58 µM	33 ± 1.42 µM	144.3 °C	CCOc1ccc(-c2nc3ccc(-c4nnc(SCC(=O)N5CCN(CC)CC5)n4CC)cc3[nH]2)cc1 [4i, 2-((4-Ethyl-5-(2-(4-ethoxyphenyl)-1H-benzo[d]imidazol-6-yl)-4H-1,2,4-triazol-3-yl)thio)-1-(4-ethylpiperazin-1-yl)ethanone]		30.6 ± 1.08 µM		
> 100 µM	21.8 ± 1.04 µM	223.5 °C	CCN1CCN(C(=O)CSc2nnc(-c3ccc4nc(-c5ccc(O)cc5)[nH]c4c3)n2CC)CC1 [4a, 2-((4-Ethyl-5-(2-(4-hydroxyphenyl)-1H-benzo[d]imidazol-6-yl)-4H-1,2,4-triazol-3-yl)thio)-1-(4-ethylpiperazin-1-yl)ethanone]		64.8 ± 1.96 µM		
> 100 µM	54.4 ± 1.84 µM	144 °C	CCn1c(SCC(=O)N2CCN(c3ncccn3)CC2)nnc1-c1ccc2nc(-c3ccc(O)cc3)[nH]c2c1 [4d, 2-((4-Ethyl-5-(2-(4-hydroxyphenyl)-1H-benzo[d]imidazol-6-yl)-4H-1,2,4-triazol-3-yl)thio)-1-(4-(2-pyrimidinyl)piperazin-1-yl)ethanone]		80.5 ± 2.76 µM		
> 100 µM	75.7 ± 2.55 µM	112.7 °C	CCN1CCN(C(=O)CSc2nnc(-c3ccc4nc(-c5ccc(OC)cc5)[nH]c4c3)n2CC)CC1 [4e, 2-((4-Ethyl-5-(2-(4-methoxyphenyl)-1H-benzo[d]imidazol-6-yl)-4H-1,2,4-triazol-3-yl)thio)-1-(4-ethylpiperazin-1-yl)ethanone]		77.7 ± 2.47 µM		
42.1 ± 2.1 µM	7.34 ± 0.21 µM	319 °C	CCn1c(SCC(=O)N2CCN(c3ccccc3)CC2)nnc1-c1ccc2nc(-c3ccc(O)cc3)[nH]c2c1 [4b, 2-((4-Ethyl-5-(2-(4-hydroxyphenyl)-1H-benzo[d]imidazol-6-yl)-4H-1,2,4-triazol-3-yl)thio)-1-(4-phenylpiperazin-1-yl)ethanone]		56.7 ± 1.18 µM	significant inhibitory activity	
